In patent US8329717B2, “Pyrimidine derivatives and their use for controlling undesired plant growth” (Bayer Cropscience AG, priority 2008, dated 2012):

Columns and labels:
PHBPU = test: Post-emergence herbicidal effect; type: in vivo; conditions: Dosage 320 g/ha, one-leaf stage, visual scoring after ca. 3 weeks vs untreated controls, 100% = plants have died
Protocol: (§1) 2. Post-Emergence Herbicidal Effect and Crop Plant Compatibility Seeds of monocotyledonous or dicotyledonous weed plants or crop plants are planted in wood-fiber pots in sandy loam, covered with earth and grown in a greenhouse under good growth conditions. 2 to 3 weeks after sowing, the test plants are treated in the one-leaf stage. The compounds according to the invention, formulated in the form of wettable powders (WP) or as emulsion concentrates (EC), are then sprayed onto the green plant parts as aqueous suspension or emulsion at a water application rate of 600 to 800 l/ha (converted) with the addition of 0.2% of wetting agent. The dosage of the compounds according to the invention is given in grams per hectare. After ca. 3 weeks' standing time of the test plants in the greenhouse under optimum growth conditions, the effect of the preparations is scored visually in comparison with untreated controls (herbicidal effect in percent (%): 100% effect=plants have died, 0% effect=as control plants).

Abutilon theophrasti [1] = test: Pre-emergence herbicidal effect; type: in vivo; conditions: Dosage 320 g/ha, visual scoring after 3 weeks vs untreated controls, 100% = plants have died
Summary of the method: (§2)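 Herbicidal effect is a visual percentage of damage relative to untreated controls, taken after 3 weeks in the greenhouse. Treatment went onto the covering soil directly after sowing, as emulsion or suspension at 600 to 800 l/ha water with 0.2% wetting agent, dosed in g/ha.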

Matricaria inodora [2] = test: Pre-emergence herbicidal effect; type: in vivo; conditions: Dosage 320 g/ha, visual scoring after 3 weeks vs untreated controls, 100% = plants have died
Summary of the method: as §2

Avena fatua [3] = test: Pre-emergence herbicidal effect; type: in vivo; conditions: Dosage 320 g/ha, visual scoring after 3 weeks vs untreated controls, 100% = plants have died
Summary of the method: as §2

Alopecurus myosuroides [4] = test: Pre-emergence herbicidal effect; type: in vivo; conditions: Dosage 320 g/ha, visual scoring after 3 weeks vs untreated controls, 100% = plants have died
Summary of the method: as §2

Echinochloa crus-galli [5] = test: Pre-emergence herbicidal effect; type: in vivo; conditions: Dosage 320 g/ha, visual scoring after 3 weeks vs untreated controls, 100% = plants have died
Summary of the method: as §2

Lolium multiflorum [6] = test: Pre-emergence herbicidal effect; type: in vivo; conditions: Dosage 320 g/ha, visual scoring after 3 weeks vs untreated controls, 100% = plants have died
Summary of the method: as §2

Setaria viridis [7] = test: Pre-emergence herbicidal effect; type: in vivo; conditions: Dosage 320 g/ha, visual scoring after 3 weeks vs untreated controls, 100% = plants have died
Summary of the method: as §2

Amaranthus retroflexus [8] = test: Pre-emergence herbicidal effect; type: in vivo; conditions: Dosage 320 g/ha, visual scoring after 3 weeks vs untreated controls, 100% = plants have died
Summary of the method: as §2

Cyperus esculentus = test: Pre-emergence herbicidal effect; type: in vivo; conditions: Dosage 320 g/ha, visual scoring after 3 weeks vs untreated controls, 100% = plants have died
Summary of the method: as §2

Veronica persica [9] = test: Pre-emergence herbicidal effect; type: in vivo; conditions: Dosage 320 g/ha, visual scoring after 3 weeks vs untreated controls, 100% = plants have died
Summary of the method: as §2

Stellaria media [10] = test: Pre-emergence herbicidal effect; type: in vivo; conditions: Dosage 320 g/ha, visual scoring after 3 weeks vs untreated controls, 100% = plants have died
Summary of the method: as §2

Viola tricolor [11] = test: Post-emergence herbicidal effect; type: in vivo; conditions: Dosage 320 g/ha, one-leaf stage, visual scoring after ca. 3 weeks vs untreated controls, 100% = plants have died
Protocol: as §1, with “The following abbreviations are used in the tables below: [table] 2.” for “2.”

Abutilon theophrasti [12] = test: Post-emergence herbicidal effect; type: in vivo; conditions: Dosage 320 g/ha, one-leaf stage, visual scoring after ca. 3 weeks vs untreated controls, 100% = plants have died
Protocol: as §1, with “The following abbreviations are used in the tables below: [table] 2.” for “2.”

Matricaria inodora [13] = test: Post-emergence herbicidal effect; type: in vivo; conditions: Dosage 320 g/ha, one-leaf stage, visual scoring after ca. 3 weeks vs untreated controls, 100% = plants have died
Protocol: as §1, with “The following abbreviations are used in the tables below: [table] 2.” for “2.”

Alopecurus myosuroides [14] = test: Post-emergence herbicidal effect; type: in vivo; conditions: Dosage 320 g/ha, one-leaf stage, visual scoring after ca. 3 weeks vs untreated controls, 100% = plants have died
Protocol: as §1, with “The following abbreviations are used in the tables below: [table] 2.” for “2.”

Echinochloa crus-galli [15] = test: Post-emergence herbicidal effect; type: in vivo; conditions: Dosage 320 g/ha, one-leaf stage, visual scoring after ca. 3 weeks vs untreated controls, 100% = plants have died
Protocol: as §1, with “The following abbreviations are used in the tables below: [table] 2.” for “2.”

Lolium multiflorum [16] = test: Post-emergence herbicidal effect; type: in vivo; conditions: Dosage 320 g/ha, one-leaf stage, visual scoring after ca. 3 weeks vs untreated controls, 100% = plants have died
Protocol: as §1, with “The following abbreviations are used in the tables below: [table] 2.” for “2.”

Setaria viridis [17] = test: Post-emergence herbicidal effect; type: in vivo; conditions: Dosage 320 g/ha, one-leaf stage, visual scoring after ca. 3 weeks vs untreated controls, 100% = plants have died
Protocol: as §1, with “The following abbreviations are used in the tables below: [table] 2.” for “2.”

Amaranthus retroflexus [18] = test: Post-emergence herbicidal effect; type: in vivo; conditions: Dosage 320 g/ha, one-leaf stage, visual scoring after ca. 3 weeks vs untreated controls, 100% = plants have died
Protocol: as §1, with “The following abbreviations are used in the tables below: [table] 2.” for “2.”

Veronica persica [19] = test: Post-emergence herbicidal effect; type: in vivo; conditions: Dosage 320 g/ha, one-leaf stage, visual scoring after ca. 3 weeks vs untreated controls, 100% = plants have died
Protocol: as §1, with “The following abbreviations are used in the tables below: [table] 2.” for “2.”

Stellaria media [20] = test: Post-emergence herbicidal effect; type: in vivo; conditions: Dosage 320 g/ha, one-leaf stage, visual scoring after ca. 3 weeks vs untreated controls, 100% = plants have died
Protocol: as §1, with “The following abbreviations are used in the tables below: [table] 2.” for “2.”

Polygonum convolvulus [21] = test: Pre-emergence herbicidal effect; type: in vivo; conditions: Dosage 320 g/ha, visual scoring after 3 weeks vs untreated controls, 100% = plants have died
Summary of the method: as §2

Viola tricolor [22] = test: Pre-emergence herbicidal effect; type: in vivo; conditions: Dosage 320 g/ha, visual scoring after 3 weeks vs untreated controls, 100% = plants have died
Summary of the method: as §2

Polygonum convolvulus [23] = test: Post-emergence herbicidal effect; type: in vivo; conditions: Dosage 320 g/ha, one-leaf stage, visual scoring after ca. 3 weeks vs untreated controls, 100% = plants have died
Protocol: as §1, with “The following abbreviations are used in the tables below: [table] 2.” for “2.”

Avena fatua [24] = test: Post-emergence herbicidal effect; type: in vivo; conditions: Dosage 320 g/ha, one-leaf stage, visual scoring after ca. 3 weeks vs untreated controls, 100% = plants have died
Protocol: as §1, with “The following abbreviations are used in the tables below: [table] 2.” for “2.”

[25] = logp (HCOOH), chemicophysical data; conditions: HCOOH

Row | Structure (SMILES) | Post-emergence herbicidal effect PHBPU (PHBPU) [%] | Pre-emergence herbicidal effect ABUTH (Abutilon theophrasti [1]) [%] | Pre-emergence herbicidal effect MATIN (Matricaria inodora [2]) [%] | Pre-emergence herbicidal effect AVEFA (Avena fatua [3]) [%] | Pre-emergence herbicidal effect ALOMY (Alopecurus myosuroides [4]) [%] | Pre-emergence herbicidal effect ECHCG (Echinochloa crus-galli [5]) [%] | Pre-emergence herbicidal effect LOLMU (Lolium multiflorum [6]) [%] | Pre-emergence herbicidal effect SETVI (Setaria viridis [7]) [%] | Pre-emergence herbicidal effect AMARE (Amaranthus retroflexus [8]) [%] | Pre-emergence herbicidal effect CYPES (Cyperus esculentus) [%] | Pre-emergence herbicidal effect VERPE (Veronica persica [9]) [%] | Pre-emergence herbicidal effect STEME (Stellaria media [10]) [%] | Post-emergence herbicidal effect VIOTR (Viola tricolor [11]) [%] | Post-emergence herbicidal effect ALOMY (Alopecurus myosuroides [14]) [%] | Post-emergence herbicidal effect ECHCG (Echinochloa crus-galli [15]) [%] | Post-emergence herbicidal effect LOLMU (Lolium multiflorum [16]) [%] | Post-emergence herbicidal effect SETVI (Setaria viridis [17]) [%] | Post-emergence herbicidal effect AMARE (Amaranthus retroflexus [18]) [%] | Post-emergence herbicidal effect VERPE (Veronica persica [19]) [%] | Post-emergence herbicidal effect STEME (Stellaria media [20]) [%] | further results
1 | Cc1nc(N[C@@H]2CCCc3ccccc32)nc(N)c1C#N [Example 1.18] | 80 | 100 | 100 | 90 | 100 | 100 | 100 | 100 | 100 | 80 | 100 | 100 | 85 | 85 | 87 | 87 | 90 | 85 | 83 | 93 | Post-emergence herbicidal effect ABUTH (Abutilon theophrasti [12]): 85%; Post-emergence herbicidal effect MATIN (Matricaria inodora [13]): 80%
2 | CC[C@H]1Cc2ccccc2[C@@H]1Nc1ncc(C#N)c(N)n1 [Example 1.129] |  | 80 | 100 | 90 | 100 | 100 | 100 | 100 | 100 | 80 | 100 | 100 | 80 | 90 | 100 | 90 | 90 | 90 | 90 | 90 | Pre-emergence herbicidal effect POLCO (Polygonum convolvulus [21]): 100%; Pre-emergence herbicidal effect VIOTR (Viola tricolor [22]): 100%; Post-emergence herbicidal effect POLCO (Polygonum convolvulus [23]): 90%; Post-emergence herbicidal effect ABUTH (Abutilon theophrasti [12]): 90%; Post-emergence herbicidal effect AVEFA (Avena fatua [24]): 80%
3 | Cc1ccc2c(c1)[C@H](Nc1ncc(F)c(N)n1)[C@@H](C)C2 [Example 1.56] | 90 |  | 100 | 100 | 100 | 100 | 100 | 100 | 100 | 80 | 100 | 100 |  | 85 | 90 | 93 | 80 | 80 | 90 | 80 | Pre-emergence herbicidal effect POLCO (Polygonum convolvulus [21]): 95%; Pre-emergence herbicidal effect VIOTR (Viola tricolor [22]): 100%; Post-emergence herbicidal effect AVEFA (Avena fatua [24]): 80%; logp (HCOOH) [25]: wax-like; logp (HCOOH): 1.20; 1H-NMR (CDCl3, 400 MHZ, δ in ppm): 1.25 (d, 3H, CH3);
